Measured values published in patent US20080009418A1, “Selective Inhibitors” (Alchemia LTD., priority 2004, published 2008).

Experiments:
Human μ-opioid (MOP) = target: T1, Human μ-opioid (MOP) (Homo sapiens, UniProt P35372); test: Radioligand binding, human μ-opioid (MOP) membranes, FlashPlate, [3H]-Naloxone; conditions: compound at 10 μM, [3H]-Naloxone
T1 construct: purchased Perkin Elmer Biosignal
How it was run: (§1)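 Cloned human receptor membranes were coated onto FlashPlate wells and incubated with radioligand and compound (added from a 0.5 mM DMSO daughter plate) for 1 hour at room temperature in the dark. Scintillation counting gave percent inhibition, with DMSO defining total and reference ligand defining non-specific binding.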

Human δ-opioid (DOP) = target: T2, Human δ-opioid (DOP) (Homo sapiens, UniProt P41143); test: Radioligand binding, human δ-opioid (DOP) membranes, FlashPlate, [3H]-Bremazocine; conditions: compound at 10 μM, [3H]-Bremazocine
T2 construct: purchased Perkin Elmer Biosignal
How it was run: as §1

Human Melanocortin (MC4) = target: T3, Human Melanocortin (MC4) (Homo sapiens, UniProt P32245); test: Radioligand binding, human melanocortin MC4 membranes, FlashPlate, [125I]-NDP-αMSH; conditions: compound at 10 μM, [125I]-NDP-αMSH
T3 construct: purchased Perkin Elmer Biosignal
How it was run: as §1

[1] = target: T4, Human neuropeptide Y (NPY-Y1) (Homo sapiens, UniProt P25929); test: Radioligand binding, human neuropeptide Y NPY-Y1 membranes, FlashPlate, [125I]-PYY; conditions: compound at 10 μM, [125I]-PYY
T4 construct: purchased Perkin Elmer Biosignal
T4 sequence (P25929 1-384): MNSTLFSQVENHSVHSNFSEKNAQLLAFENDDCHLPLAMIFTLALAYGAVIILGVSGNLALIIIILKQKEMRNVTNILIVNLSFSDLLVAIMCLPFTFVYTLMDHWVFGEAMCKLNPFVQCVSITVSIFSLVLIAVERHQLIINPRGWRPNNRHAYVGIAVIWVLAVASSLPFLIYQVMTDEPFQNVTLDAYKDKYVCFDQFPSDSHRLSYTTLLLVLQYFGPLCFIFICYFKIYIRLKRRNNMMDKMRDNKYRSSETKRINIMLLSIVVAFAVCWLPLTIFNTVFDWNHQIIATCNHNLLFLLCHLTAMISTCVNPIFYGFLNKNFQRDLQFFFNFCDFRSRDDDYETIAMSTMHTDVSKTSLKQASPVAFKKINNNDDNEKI
How it was run: as §1

Mouse urotensin (mUR2) = target: T5, Mouse urotensin (mUR2) (Mus musculus, UniProt Q8VIH9); test: Radioligand binding, mouse urotensin mUR2 membranes, FlashPlate, [125I]-Urotensin II; conditions: compound at 10 μM, [125I]-Urotensin II
T5 construct: purchased Perkin Elmer Biosignal
T5 sequence (Q8VIH9 1-385): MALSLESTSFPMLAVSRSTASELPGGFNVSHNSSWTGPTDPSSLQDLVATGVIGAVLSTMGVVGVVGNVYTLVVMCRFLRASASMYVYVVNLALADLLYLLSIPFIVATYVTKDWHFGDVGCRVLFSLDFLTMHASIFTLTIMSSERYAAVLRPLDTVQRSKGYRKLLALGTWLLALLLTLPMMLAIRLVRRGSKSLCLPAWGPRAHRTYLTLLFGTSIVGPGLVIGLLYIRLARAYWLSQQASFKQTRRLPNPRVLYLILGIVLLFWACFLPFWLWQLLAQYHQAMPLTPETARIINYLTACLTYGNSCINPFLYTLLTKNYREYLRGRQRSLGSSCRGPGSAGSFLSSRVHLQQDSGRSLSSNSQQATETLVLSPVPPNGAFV
How it was run: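 Cloned mouse urotensin (mUR2) receptor membranes from Perkin Elmer Biosignal were immobilized in FlashPlate microplates using a proprietary coating. Each well got 19.5 μl buffer, then 0.5 μl of DMSO, reference ligand, or compound. Adding 5 μl of [125I]-Urotensin II, diluted to 5× final concentration in binding buffer, started binding. Plates were sealed with TopSeal-A and incubated 1 hour at room temperature in the dark. Wells were counted for 30 seconds each on a TopCount after a 60-second delay, and percentage inhibition was calculated.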

Human melanocortin (MC5) = target: T6, Human melanocortin (MC5) (Homo sapiens, UniProt P33032); test: Radioligand binding, human melanocortin MC5 membranes, FlashPlate, [125I]-NDP-αMSH; conditions: compound at 10 μM, [125I]-NDP-αMSH
T6 construct: purchased Perkin Elmer Biosignal
How it was run: as §1

Human opioid (ORL1) = target: T7, Human opioid (ORL1) (Homo sapiens, UniProt P41146); test: Radioligand binding, human opioid ORL1 membranes, FlashPlate, [125I]-Nociceptin; conditions: compound at 10 μM, [125I]-Nociceptin
T7 construct: purchased Perkin Elmer Biosignal
How it was run: as §1

Human κ-Opioid (KOP) = target: T8, Human κ-Opioid (KOP) (Homo sapiens, UniProt P41145); test: Radioligand binding, human κ-opioid (KOP) membranes, filtration, [3H]-Diprenorphine; conditions: compound at 10 μM, [3H]-Diprenorphine
T8 construct: purchased Perkin Elmer Biosignal
How it was run: (§2)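 Membranes from cloned human receptors were incubated with compound and radioligand for 1 hour at room temperature. Bound ligand was collected on 0.3% PEI-soaked filters, washed with cold 50 mM Tris-HCl pH 7.4, and counted by scintillation. Percent inhibition was computed against DMSO totals and reference-ligand nonspecific wells.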

Human neurokinin (NK1) = target: T9, Human neurokinin (NK1) (Homo sapiens, UniProt P25103); test: Radioligand binding, human neurokinin NK1 membranes, filtration, [125I]-Substance P; conditions: compound at 10 μM, [125I]-Substance P
T9 construct: purchased Perkin Elmer Biosignal
How it was run: as §2

[2] = target: T10, Human melanin-concentrating hormone (MCH1) (Homo sapiens, UniProt Q99705); test: Radioligand binding, human melanin-concentrating hormone MCH1 membranes, FlashPlate, [125I]-S36057; conditions: compound at 10 μM
T10 construct: purchased Perkin Elmer Biosignal
How it was run: as §1

Human Melanocortin (MC3) = target: T11, Human Melanocortin (MC3) (Homo sapiens, UniProt P41968); test: Radioligand binding, human melanocortin MC3 membranes, FlashPlate, [125I]-NDP-αMSH; conditions: compound at 10 μM, [125I]-NDP-αMSH
T11 construct: purchased Perkin Elmer Biosignal
How it was run: as §1

T11 sequence (P41968 whole entry): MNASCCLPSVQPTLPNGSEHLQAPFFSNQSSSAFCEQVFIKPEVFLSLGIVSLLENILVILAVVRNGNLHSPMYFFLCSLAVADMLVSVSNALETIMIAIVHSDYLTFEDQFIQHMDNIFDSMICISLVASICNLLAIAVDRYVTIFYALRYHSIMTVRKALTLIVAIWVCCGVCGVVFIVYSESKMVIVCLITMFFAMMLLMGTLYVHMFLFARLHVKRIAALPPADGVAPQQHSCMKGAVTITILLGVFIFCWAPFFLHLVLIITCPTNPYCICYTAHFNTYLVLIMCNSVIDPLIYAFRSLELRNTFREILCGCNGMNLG
T7 sequence (P41146 whole entry): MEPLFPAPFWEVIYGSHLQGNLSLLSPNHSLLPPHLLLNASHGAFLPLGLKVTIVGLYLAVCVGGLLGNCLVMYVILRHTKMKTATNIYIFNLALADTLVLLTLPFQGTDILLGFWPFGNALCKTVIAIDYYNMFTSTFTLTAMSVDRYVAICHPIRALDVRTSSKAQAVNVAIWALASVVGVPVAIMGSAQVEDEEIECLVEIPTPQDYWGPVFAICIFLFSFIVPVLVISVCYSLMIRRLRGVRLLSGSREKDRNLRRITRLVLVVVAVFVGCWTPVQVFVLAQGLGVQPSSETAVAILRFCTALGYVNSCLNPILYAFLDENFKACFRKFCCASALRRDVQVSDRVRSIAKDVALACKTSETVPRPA
T1 sequence (P35372 whole entry): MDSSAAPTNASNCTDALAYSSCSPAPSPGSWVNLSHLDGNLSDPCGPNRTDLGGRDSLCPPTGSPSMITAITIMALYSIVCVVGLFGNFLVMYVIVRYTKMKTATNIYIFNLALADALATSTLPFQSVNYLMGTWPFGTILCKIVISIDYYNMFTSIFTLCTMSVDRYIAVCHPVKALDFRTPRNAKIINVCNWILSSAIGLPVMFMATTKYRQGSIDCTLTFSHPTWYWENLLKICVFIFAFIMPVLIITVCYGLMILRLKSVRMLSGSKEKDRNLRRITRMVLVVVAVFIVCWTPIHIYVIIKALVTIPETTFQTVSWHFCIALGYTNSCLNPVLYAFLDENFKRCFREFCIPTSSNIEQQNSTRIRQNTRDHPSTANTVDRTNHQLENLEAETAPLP
T8 sequence (P41145 whole entry): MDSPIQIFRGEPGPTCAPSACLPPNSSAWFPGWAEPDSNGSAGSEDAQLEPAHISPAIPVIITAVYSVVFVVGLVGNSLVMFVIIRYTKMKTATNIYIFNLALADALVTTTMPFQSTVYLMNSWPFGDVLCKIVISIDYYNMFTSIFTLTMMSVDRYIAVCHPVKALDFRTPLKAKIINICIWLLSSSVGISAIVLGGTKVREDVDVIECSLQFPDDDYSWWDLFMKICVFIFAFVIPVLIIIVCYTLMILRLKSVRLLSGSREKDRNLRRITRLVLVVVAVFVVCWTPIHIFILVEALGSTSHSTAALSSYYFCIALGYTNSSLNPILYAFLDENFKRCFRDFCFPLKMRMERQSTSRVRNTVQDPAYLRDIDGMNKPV
T9 sequence (P25103 whole entry): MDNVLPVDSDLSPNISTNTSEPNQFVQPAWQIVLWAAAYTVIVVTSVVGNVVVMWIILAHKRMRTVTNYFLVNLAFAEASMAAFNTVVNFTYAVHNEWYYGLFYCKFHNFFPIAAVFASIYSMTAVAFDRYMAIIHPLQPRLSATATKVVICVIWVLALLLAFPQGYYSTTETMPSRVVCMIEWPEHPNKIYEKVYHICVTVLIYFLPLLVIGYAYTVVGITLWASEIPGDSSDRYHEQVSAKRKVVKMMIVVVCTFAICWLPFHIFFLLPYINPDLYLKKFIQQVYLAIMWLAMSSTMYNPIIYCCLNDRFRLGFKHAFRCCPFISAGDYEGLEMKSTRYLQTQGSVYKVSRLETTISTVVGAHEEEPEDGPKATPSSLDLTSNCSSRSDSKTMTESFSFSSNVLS
T2 sequence (P41143 whole entry): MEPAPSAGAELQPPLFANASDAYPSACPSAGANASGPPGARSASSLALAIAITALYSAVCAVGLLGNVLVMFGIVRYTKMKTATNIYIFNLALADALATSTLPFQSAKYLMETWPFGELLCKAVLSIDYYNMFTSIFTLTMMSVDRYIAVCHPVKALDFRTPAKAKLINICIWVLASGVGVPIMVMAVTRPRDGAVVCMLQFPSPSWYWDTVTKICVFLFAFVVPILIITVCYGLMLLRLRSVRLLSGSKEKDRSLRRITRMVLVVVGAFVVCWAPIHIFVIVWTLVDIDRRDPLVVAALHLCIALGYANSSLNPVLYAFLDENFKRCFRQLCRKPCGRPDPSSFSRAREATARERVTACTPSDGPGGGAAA
T6 sequence (P33032 whole entry): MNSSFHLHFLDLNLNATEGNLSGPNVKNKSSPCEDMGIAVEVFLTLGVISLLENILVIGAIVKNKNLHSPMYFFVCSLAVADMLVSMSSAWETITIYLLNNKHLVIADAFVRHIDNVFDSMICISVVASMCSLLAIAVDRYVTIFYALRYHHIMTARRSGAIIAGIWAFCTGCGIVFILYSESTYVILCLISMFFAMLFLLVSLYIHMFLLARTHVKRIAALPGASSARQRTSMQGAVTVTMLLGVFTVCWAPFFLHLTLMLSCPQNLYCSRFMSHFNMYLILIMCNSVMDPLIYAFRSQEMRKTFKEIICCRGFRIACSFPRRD
T10 sequence (Q99705 whole entry): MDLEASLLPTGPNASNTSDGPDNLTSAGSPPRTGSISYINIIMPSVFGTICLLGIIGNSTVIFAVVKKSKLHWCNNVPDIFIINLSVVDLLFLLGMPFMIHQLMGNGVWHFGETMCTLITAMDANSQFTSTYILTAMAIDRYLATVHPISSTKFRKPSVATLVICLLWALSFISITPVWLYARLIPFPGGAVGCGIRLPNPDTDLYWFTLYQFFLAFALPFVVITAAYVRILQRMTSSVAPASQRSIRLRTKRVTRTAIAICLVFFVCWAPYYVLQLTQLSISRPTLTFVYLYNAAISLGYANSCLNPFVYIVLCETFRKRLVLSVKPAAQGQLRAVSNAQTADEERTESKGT
T3 sequence (P32245 whole entry): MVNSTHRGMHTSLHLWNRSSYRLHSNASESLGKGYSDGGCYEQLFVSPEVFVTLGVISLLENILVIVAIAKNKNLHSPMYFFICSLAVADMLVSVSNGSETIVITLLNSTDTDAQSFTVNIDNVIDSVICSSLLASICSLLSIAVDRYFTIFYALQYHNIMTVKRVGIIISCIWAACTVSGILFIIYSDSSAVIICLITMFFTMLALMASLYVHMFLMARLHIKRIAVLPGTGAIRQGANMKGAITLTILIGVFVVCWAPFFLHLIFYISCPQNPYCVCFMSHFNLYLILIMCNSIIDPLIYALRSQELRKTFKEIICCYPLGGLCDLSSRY

COCC1OC(OCc2ccccc2)C(NC(=O)CN)C(OCc2ccc3ccccc3c2)C1O (stereo not shown) [compound 188]
A7: inhibition of radioligand binding (Human μ-opioid (MOP); FlashPlate): − (“−” indicates less than 50% inhibition at 10 μM) | A1: inhibition of radioligand binding (Human δ-opioid (DOP); FlashPlate): − (“−” indicates less than 50% inhibition at 10 μM) | A4: inhibition of radioligand binding (Human Melanocortin (MC4); FlashPlate): − (“−” indicates less than 50% inhibition at 10 μM) | A9: inhibition of radioligand binding ([1]; FlashPlate): − (“−” indicates less than 50% inhibition at 10 μM) | A11: inhibition of radioligand binding (Mouse urotensin (mUR2); FlashPlate): − (“−” indicates less than 50% inhibition at 10 μM) | A5: inhibition of radioligand binding (Human melanocortin (MC5); FlashPlate): − (“−” indicates less than 50% inhibition at 10 μM) | A10: inhibition of radioligand binding (Human opioid (ORL1); FlashPlate): − (“−” indicates less than 50% inhibition at 10 μM) | A2: inhibition of radioligand binding (Human κ-Opioid (KOP); filtration): − (“−” indicates less than 50% inhibition at 10 μM) | A8: inhibition of radioligand binding (Human neurokinin (NK1); filtration): + (“+” indicates greater than 50% inhibition at 10 μM) | A6: inhibition of radioligand binding ([2]; [125I]-S36057, FlashPlate): − (“−” indicates less than 50% inhibition at 10 μM) | A3: inhibition of radioligand binding (Human Melanocortin (MC3); FlashPlate): − (“−” indicates less than 50% inhibition at 10 μM)

COCC1OC(OCc2ccc(Cl)cc2)C(NC(=O)CCN)C(OCc2ccc3ccccc3c2)C1O (stereo not shown) [compound 210]
A7: inhibition of radioligand binding (Human μ-opioid (MOP); FlashPlate): − (“−” indicates less than 50% inhibition at 10 μM) | A1: inhibition of radioligand binding (Human δ-opioid (DOP); FlashPlate): − (“−” indicates less than 50% inhibition at 10 μM) | A4: inhibition of radioligand binding (Human Melanocortin (MC4); FlashPlate): + (“+” indicates greater than 50% inhibition at 10 μM) | A9: inhibition of radioligand binding ([1]; FlashPlate): − (“−” indicates less than 50% inhibition at 10 μM) | A11: inhibition of radioligand binding (Mouse urotensin (mUR2); FlashPlate): − (“−” indicates less than 50% inhibition at 10 μM) | A5: inhibition of radioligand binding (Human melanocortin (MC5); FlashPlate): + (“+” indicates greater than 50% inhibition at 10 μM) | A10: inhibition of radioligand binding (Human opioid (ORL1); FlashPlate): − (“−” indicates less than 50% inhibition at 10 μM) | A2: inhibition of radioligand binding (Human κ-Opioid (KOP); filtration): − (“−” indicates less than 50% inhibition at 10 μM) | A8: inhibition of radioligand binding (Human neurokinin (NK1); filtration): + (“+” indicates greater than 50% inhibition at 10 μM) | A6: inhibition of radioligand binding ([2]; [125I]-S36057, FlashPlate): − (“−” indicates less than 50% inhibition at 10 μM) | A3: inhibition of radioligand binding (Human Melanocortin (MC3); FlashPlate): − (“−” indicates less than 50% inhibition at 10 μM)

N=C(N)NCCC(=O)NC1C(OCc2ccc(-c3ccccc3)cc2)OC(COCc2ccc(Cl)cc2)C(O)C1OCc1ccc2ccccc2c1 (stereo not shown) [compound 413]
A7: inhibition of radioligand binding (Human μ-opioid (MOP); human MOP membranes): − (“−” indicates less than 50% inhibition at 10 μM) | A1: inhibition of radioligand binding (Human δ-opioid (DOP); human DOP membranes): − (“−” indicates less than 50% inhibition at 10 μM) | A4: inhibition of radioligand binding (Human Melanocortin (MC4); human MC4 membranes): + (“+” indicates greater than 50% inhibition at 10 μM) | A9: inhibition of radioligand binding ([1]; human NPY-Y1 membranes): − (“−” indicates less than 50% inhibition at 10 μM) | A11: inhibition of radioligand binding (Mouse urotensin (mUR2); mouse mUR2 membranes): − (“−” indicates less than 50% inhibition at 10 μM) | A5: inhibition of radioligand binding (Human melanocortin (MC5); human MC5 membranes): + (“+” indicates greater than 50% inhibition at 10 μM) | A10: inhibition of radioligand binding (Human opioid (ORL1); human ORL1 membranes): + (“+” indicates greater than 50% inhibition at 10 μM) | A2: inhibition of radioligand binding (Human κ-Opioid (KOP); human KOP membranes): − (“−” indicates less than 50% inhibition at 10 μM) | A8: inhibition of radioligand binding (Human neurokinin (NK1); human NK1 membranes): + (“+” indicates greater than 50% inhibition at 10 μM) | A6: inhibition of radioligand binding ([2]; [125I]-S36057, human MCH1 membranes): + (“+” indicates greater than 50% inhibition at 10 μM) | A3: inhibition of radioligand binding (Human Melanocortin (MC3); human MC3 membranes): + (“+” indicates greater than 50% inhibition at 10 μM)

NCCC(=O)NC1C(OCc2ccccc2)OC(COCc2ccc3ccccc3c2)C(O)C1OCc1ccc2ccccc2c1 (stereo not shown) [compound 366]
A7: inhibition of radioligand binding, human μ-opioid (MOP) (Human μ-opioid (MOP)): − (“−” indicates less than 50% inhibition at 10 μM) | A1: inhibition of radioligand binding, human δ-opioid (DOP) (Human δ-opioid (DOP)): − (“−” indicates less than 50% inhibition at 10 μM) | A4: inhibition of radioligand binding, human melanocortin (MC4) (Human Melanocortin (MC4)): + (“+” indicates greater than 50% inhibition at 10 μM) | A9: inhibition of radioligand binding, human neuropeptide Y (NPY-Y1) [1]: − (“−” indicates less than 50% inhibition at 10 μM) | A11: inhibition of radioligand binding, mouse urotensin (mUR2) (Mouse urotensin (mUR2)): − (“−” indicates less than 50% inhibition at 10 μM) | A5: inhibition of radioligand binding, human melanocortin (MC5) (Human melanocortin (MC5)): + (“+” indicates greater than 50% inhibition at 10 μM) | A10: inhibition of radioligand binding, human opioid (ORL1) (Human opioid (ORL1)): − (“−” indicates less than 50% inhibition at 10 μM) | A2: inhibition of radioligand binding, human κ-opioid (KOP) (Human κ-Opioid (KOP)): − (“−” indicates less than 50% inhibition at 10 μM) | A8: inhibition of radioligand binding, human neurokinin (NK1) (Human neurokinin (NK1)): + (“+” indicates greater than 50% inhibition at 10 μM) | A6: inhibition of radioligand binding, human melanin-concentrating hormone (MCH1) ([2]; [125I]-S36057): − (“−” indicates less than 50% inhibition at 10 μM) | A3: inhibition of radioligand binding, human melanocortin (MC3) (Human Melanocortin (MC3)): + (“+” indicates greater than 50% inhibition at 10 μM)

COC[C@H]1OC(OCc2ccc3ccccc3c2)[C@H](NC(=O)CCCN)[C@@H](OCc2cccc(O)c2)[C@@H]1O (stereo partly shown) [compound 134]
A7 radioligand binding, percentage inhibition (Human μ-opioid (MOP)): + (“+” indicates greater than 50% inhibition at 10 μM) | A1 radioligand binding, percentage inhibition (Human δ-opioid (DOP)): − (“−” indicates less than 50% inhibition at 10 μM) | A4 radioligand binding, percentage inhibition (Human Melanocortin (MC4)): − (“−” indicates less than 50% inhibition at 10 μM) | A9 radioligand binding, percentage inhibition [1]: − (“−” indicates less than 50% inhibition at 10 μM) | A11 radioligand binding, percentage inhibition (Mouse urotensin (mUR2)): − (“−” indicates less than 50% inhibition at 10 μM) | A5 radioligand binding, percentage inhibition (Human melanocortin (MC5)): − (“−” indicates less than 50% inhibition at 10 μM) | A10 radioligand binding, percentage inhibition (Human opioid (ORL1)): − (“−” indicates less than 50% inhibition at 10 μM) | A2 radioligand binding, percentage inhibition (Human κ-Opioid (KOP)): − (“−” indicates less than 50% inhibition at 10 μM) | A8 radioligand binding, percentage inhibition (Human neurokinin (NK1)): − (“−” indicates less than 50% inhibition at 10 μM) | A6 radioligand binding, percentage inhibition ([2]; [125I]-S36057): − (“−” indicates less than 50% inhibition at 10 μM) | A3 radioligand binding, percentage inhibition (Human Melanocortin (MC3)): − (“−” indicates less than 50% inhibition at 10 μM)
